{
  "source": "patent US20260365628A1",
  "about": "“SUBSTITUTED 3,4-DIHYDROQUINOLINONE INHIBITORS OF TSHR” (Septerna, Inc., priority 2022, published 2026)",
  "data": [
    {"biological_target": "T1, hTSHR (Homo sapiens, UniProt P16473)", "T1 construct": "expressed in transfected cells", "T1 sequence (P16473 21-764)": "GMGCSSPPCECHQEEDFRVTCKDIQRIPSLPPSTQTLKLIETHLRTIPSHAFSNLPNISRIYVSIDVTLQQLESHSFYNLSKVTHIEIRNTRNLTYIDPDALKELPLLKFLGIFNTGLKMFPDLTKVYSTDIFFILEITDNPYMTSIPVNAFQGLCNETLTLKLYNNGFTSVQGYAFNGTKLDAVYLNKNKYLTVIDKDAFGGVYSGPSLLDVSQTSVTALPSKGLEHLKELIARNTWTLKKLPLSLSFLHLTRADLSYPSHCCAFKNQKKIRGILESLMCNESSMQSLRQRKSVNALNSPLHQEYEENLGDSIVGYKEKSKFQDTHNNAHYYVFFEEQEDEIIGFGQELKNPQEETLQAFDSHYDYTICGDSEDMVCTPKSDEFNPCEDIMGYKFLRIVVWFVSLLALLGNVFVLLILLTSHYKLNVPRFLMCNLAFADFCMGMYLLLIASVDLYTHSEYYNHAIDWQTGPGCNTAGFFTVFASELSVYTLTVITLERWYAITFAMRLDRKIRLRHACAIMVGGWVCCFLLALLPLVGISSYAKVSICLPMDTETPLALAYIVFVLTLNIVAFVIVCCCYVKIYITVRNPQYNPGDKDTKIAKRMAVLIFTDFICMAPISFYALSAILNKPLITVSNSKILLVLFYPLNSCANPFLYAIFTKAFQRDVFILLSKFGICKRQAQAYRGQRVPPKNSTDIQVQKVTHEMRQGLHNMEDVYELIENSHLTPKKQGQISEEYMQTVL", "assay": "hTSHR TR-FRET cAMP Assay (inhibition of M22-stimulated cAMP production)", "type": "cell-based", "settings": "Expi293F Inducible cells stably expressing hTSHR; cAMP HTRF; stimulated with EC80 of anti-TSHR antibody M22; 15 min compound preincubation, 30 min at 37° C.; read-out: Activity (IC50 bins)", "protocol": "Assays were performed using Expi293F Inducible cells (Invitrogen) stably expressing hTSHR via a pcZeo TetO DNA plasmid. Cell lines were maintained in suspension in Expi293 Expression Medium (ThermoFisher Scientific) supplemented with 10 µg/mL Blasticidin and 10 μg/mL Zeocin and incubated at 37° C., 8% CO2, with shaking. hTSHR cells were incubated overnight at 32° C., 5% C02, with shaking, but […] Doxycycline. Assay-ready aliquots were prepared by harvesting each cell type separately 24-hours post-induction. Cells were pelleted at 4° C., resuspended in Expi293 Expression media+10% DMSO, aliquoted, and kept frozen at −80° C. until ready for use.\nFor the assay, concentration-response curves of test and reference compounds were added to 384-well plates using an Echo 650 liquid handler (Beckman Coulter) and backfilled with DMSO to a final concentration of 0.5%. cAMP was measured using the cisbio cAMP Gs dynamic HTRF kit (PerkinElmer) according to manufacturer instructions. Aliquots of frozen hTSHR cells were quickly thawed and washed with phosphate-buffered saline (Sigma-Aldrich) to remove media and DMSO. The cells were resuspended in kit-supplied Stimulation Buffer at 0.8×10^6 cells/mL. 7.5 μL of the hTSHR cell dilution were added to each well of the assay plate and incubated with the compounds for 15 minutes in a 37 C, 0% CO2 incubator. 2.5 μL of Vehicle control or an EC80 concentration of recombinant human anti-TSHR antibody (M22, Creative Biolabs) was added to stimulate cAMP production. Cells were incubated with for 30 minutes at 37° C., 0% CO2. Following this incubation, the cells were lysed and accumulated cAMP was detected through the addition of kit-supplied lysis buffer containing d2-reagent and Eu-cryptate antibody. The HTRF signal was quantified using a BMG Clariostar plate reader optimized for HTRF assays. The HTRF ratio was determined by dividing the signal output at […] by that at 620 nm. Data were normalized to the signal produced by the EC80 concentration of either M22 or FSH (0% inhibition) and vehicle (no agonist, 100% inhibition).", "units": {"IC50": "nM"}, "values": [
      {"smiles": "C[C@@H](c1cccc(CCOC(F)(F)F)c1)n1c(=O)cnc2cc(NC(=O)NC(C)(C)C)ccc21", "note": "[Example 110, (S)-1-(tert-butyl)-3-(2-oxo-1-(1-(3-(2-(tri-fluoromethoxy)ethyl)phenyl)ethyl)-1,2-dihydroquinoxalin-6-yl)urea]", "IC50": "100 to 1000"},
      {"smiles": "Cc1cccc(CN2C(=O)CCc3cc(NC(=O)NC(C)(C)C)ccc32)c1", "note": "[Example 21, 1-(tert-butyl)-3-(1-(3-methylbenzyl)-2-oxo-1,2,3,4-tetrahydroquinolin-6-yl)urea]", "IC50": "< 100"},
      {"smiles": "Cc1cccc(CN2C(=O)[C@@H](C)Oc3cc(NC(=O)NC(C)(C)C)ccc32)c1", "note": "[Example 157, 3-tert-butyl-1-[(2R)-2-methyl-4-[(3-methylphenyl)methyl]-3-oxo-2H-1,4-benzoxazin-7-yl]urea]", "IC50": "< 100"},
      {"smiles": "CC(C)(C)NC(=O)Nc1ccc2c(c1)OCC(=O)N2Cc1cccc2cn[nH]c12", "note": "[Example 76, 1-(4-((1H-indazol-7-y1)methyl)-3-oxo-3,4-dihydro-2H-benzo[b][1,4]oxa-zin-7-yl)-3-(tert-butyl)urea]", "IC50": "> 1000"},
      {"smiles": "CC(O)c1cccc([C@H](C)n2c(=O)cnc3cc(NC(=O)NC(C)(C)C)ccc32)c1", "note": "(stereo partly drawn) [Example 146, 1-(tert-butyl)-3-(1-((1S)-1-(3-(1-hydroxy-ethyl)phenyl)eth-yl)-2-oxo-1,2-dihydroquinoxalin-6-yl)urea]", "IC50": "> 1000"},
      {"smiles": "CC(C)(CC(F)(F)F)NC(=O)Nc1ccc2c(c1)ncc(=O)n2Cc1cccc(OC(F)(F)F)c1", "note": "[Example 243, 1-(2-oxo-1-(3-(trifluoromethoxy)enzyl)-1,2-dihydroquinoxalin-6-yl)-3-(4,4,4-trifluoro-2-methylbutan-2-yl)urea]", "IC50": "100 to 1000"},
      {"smiles": "CC(C)(C)CNC(=O)Nc1ccc2c(c1)ncc(=O)n2Cc1cccc(OC(F)(F)F)c1", "note": "[Example 240, 1-neopentyl-3-(2-oxo-1-(3-(trifluoromethoxy)benzyl)-1,2-dihydroquinoxalin-6-yl)urea]", "IC50": "100 to 1000"},
      {"smiles": "CC(C)(C)NC(=O)Nc1ccc2c(c1)CCC(=O)N2Cc1ccccn1", "note": "[Example 2, 1-(tert-butyl)-3-(2-oxo-1-(pyridin-2-ylmethyl)-1,2,3,4-tetrahydroquinolin-6-yl)urea]", "IC50": "> 1000"},
      {"smiles": "C[C@@H](c1cccc(OC(F)(F)F)c1)n1c(=O)cnc2cc(NC(=O)NC34CCC(C3)C4)ccc21", "note": "[Example 213, (S)-1-(bicyclo[2.1.1]hexan-1-yl)-3-(2-oxo-1-(1-(3-(trifluoromethoxy)phenyl)ethyl)-1,2-dihydroquinoxalin-6-yl)urea]", "IC50": "< 100"},
      {"smiles": "C[C@H]1Oc2cc(NC(=O)NC(C)(C)C)ccc2N([C@@H](C)c2cccc(C(F)F)c2)C1=O", "note": "[Example 185, 1-(tert-butyl)-3-((R)-4-((S)-1-(3-(difluoromethyl)phenyl)ethyl)-2-methyl-3-oxo-3,4-dihydro-2H-benzo[b][1,4]oxazin-7-yl)urea]", "IC50": "< 100"},
      {"smiles": "C[C@@H](c1c(F)cccc1F)n1c(=O)cnc2cc(NC(=O)NC(C)(C)C)ccc21", "note": "[Example 140, (S)-1-(tert-butyl)-3-(1-(1-(2,6-difluorophenyl)ethyl)-2-oxo-1,2-dihydroquinoxalin-6-yl)urea]", "IC50": "100 to 1000"},
      {"smiles": "C[C@@H](c1cccc(OC(F)(F)F)c1)n1c(=O)cnc2cc(NC(=O)NC3(C)CCCCC3)ccc21", "note": "[Example 210, (S)-1-(1-methylcyclohexyl)-3-(2-oxo-1-(1-(3-(trifluoromethoxy)phenyl)ethyl)-1,2-dihydroquinoxalin-6-yl)urea]", "IC50": "< 100"},
      {"smiles": "Cc1nc2cc(NC(=O)NC(C)(C)C)ccc2n([C@@H](C)c2cccc(C(F)(F)F)c2)c1=O", "note": "[Example 181, (S)-1-(tert-butyl)-3-(3-methyl-2-oxo-1-(1-(3-(trifluoromethyl)phenyl)ethyl)-1,2-dihydroquinoxalin-6-yl)urea]", "IC50": "100 to 1000"},
      {"smiles": "C[C@@H](c1cccc(Cl)c1)n1c(=O)cnc2cc(NC(=O)NC(C)(C)C)c(F)cc21", "note": "[Example 357, (S)-1-(tert-butyl)-3-(1-(1-(3-chlorophenyl)ethyl)-7-fluoro-2-oxo-1,2-dihydroquinoxalin-6-yl) Urea]", "IC50": "100 to 1000"},
      {"smiles": "CC(C)(CNC(=O)Nc1ccc2c(c1)ncc(=O)n2Cc1cccc(OC(F)(F)F)c1)C(F)(F)F", "note": "[Example 244, 1-(2-oxo-1-(3-(trifluoromethoxy)benzyl)-1,2-dihydroquinoxalin-6-yl)-3-(3,3,3-trifluoro-2,2-dimethylpropyl) urea]", "IC50": "100 to 1000"},
      {"smiles": "CC(C)(C)NC(=O)Nc1ccc2c(c1)ncc(=O)n2Cc1cccc(CCCC(F)(F)F)c1", "note": "[Example 93, 1-(tert-butyl)-3-(2-oxo-1-(3-(4,4,4-trifluoro-butyl)benzyl)-1,2-dihydro-quinoxalin-6-yl)urea]", "IC50": "< 100"},
      {"smiles": "C[C@H]1Oc2cc(NC(=O)NC3(C)CCCCC3)ccc2N(Cc2cccc(C(F)(F)F)n2)C1=O", "note": "[Example 229, (R)-1-(2-methyl-3-oxo-4-((6-(trifluoromethyl)pyridin-2-yl)methyl)-3,4-dihydro-2H-benzo[b][1,4]oxazin-7-yl)-3-(1-methylcyclohexyl) urea]", "IC50": "< 100"},
      {"smiles": "CC(c1cccc2c1cnn2CCC(F)(F)F)n1c(=O)cnc2cc(NC(=O)NC(C)(C)C)ccc21", "note": "(centres unmarked) [Example 251, 1-(tert-butyl)-3-(2-oxo-1-(1-(1-(3,3,3-trifluoropropyl)-1H-indazol-4-yl)ethyl)-1,2-dihydro-quinoxalin-6-yl)urea]", "IC50": "> 1000"},
      {"smiles": "CC(c1cccc(OC(F)(F)F)c1)n1c(=O)cnc2cc(NC(=O)[C@H]3CCC3(C)C)ccc21", "note": "(stereo in doubt) [Example 220, (S)-2,2-dimethyl-N-(2-oxo-1-((R)-1-(3-(trifluoromethoxy)phenyl)ethyl)-1,2-dihydroquinoxalin-6-yl) cyclobutane-1-carboxamide]", "IC50": "100 to 1000"},
      {"smiles": "COC[C@@H]1Oc2cc(NC(=O)NC(C)(C)C)ccc2N(Cc2ccccc2)C1=O", "note": "[Example 288, (S)-1-(4-benzyl-2-(methoxymethyl)-3-oxo-3,4-dihydro-2H-benzo[b][1,4]oxazin-7-yl)-3-(tert-butyl)urea]", "IC50": "> 1000"},
      {"smiles": "C[C@H]1Oc2cc(NC(=O)NC(C)(C)C)ccc2N(Cc2cccc(C(F)F)c2)C1=O", "note": "[Example 158, (R)-1-(tert-butyl)-3-(4-(3-(difluoro-methyl)benzyl)-2-methyl-3-oxo-3,4-dihydro-2H-benzo [b][1,4]oxazin-7-yl)urea]", "IC50": "< 100"},
      {"smiles": "CC(C)(C)NC(=O)Nc1ccc2c(c1)C[C@H](CC#N)C(=O)N2Cc1ccccc1", "note": "[Example 275, (R)-1-(1-benzyl-3-(cyanomethyl)-2-oxo-1,2,3,4-tetrahydroquinolin-6-yl)-3-(tert-butyl)urea]", "IC50": "> 1000"},
      {"smiles": "C[C@H]1Oc2cc(NC(=O)NC(C)(C)C)ccc2N(Cc2nccc(C(F)(F)F)n2)C1=O", "note": "[Example 170, (R)-1-(tert-butyl)-3-(2-methyl-3-oxo-4-((4-(trifluoro-methyl)pyrimidin-2-yl)methyl)-3,4-dihydro-2H-benzo [b][1,4]oxazin-7-yl)urea]", "IC50": "100 to 1000"},
      {"smiles": "C[C@@H](c1cc(Cl)cc(Cl)c1)n1c(=O)cnc2cc(NC(=O)NC(C)(C)C)ccc21", "note": "[Example 101, (S)-1-(tert-butyl)-3-(1-(1-(3,5-dichlorophenyl)ethyl)-2-oxo-1,2-dihydroquinoxalin-6-yl)urea]", "IC50": "100 to 1000"},
      {"smiles": "C[C@H]1Oc2cc(NC(=O)NC3(C)CCCC3)ccc2N([C@@H](C)c2cccc(OC(F)(F)F)n2)C1=O", "note": "[Example 323, 1-((R)-2-methyl-3-oxo-4-((S)-1-(6-(trifluoromethoxy)pyridin-2-yl)ethyl)-3,4-dihydro-2H-benzo[b][1,4]oxazin-7-yl)-3-(1-methylcyclopentyl)urea]", "IC50": "< 100"},
      {"smiles": "CC(C)(C)NC(=O)Nc1ccc2c(c1)CCC(=O)N2C1CCc2ccccc21", "note": "(centres unmarked) [Example 309, 1-(tert-butyl)-3-(1-(2,3-dihydro-1H-inden-1-yl)-2-oxo-1,2,3,4-tetrahydroquinolin-6-yl)urea]", "IC50": "100 to 1000"},
      {"smiles": "C[C@H]1Oc2nc(NC(=O)NC(C)(C)C)c(C(F)(F)F)cc2N(Cc2ccccc2)C1=O", "note": "[Example 368, (R)-1-(1-benzyl-3-methyl-2-oxo-7-(trifluoromethyl)-2,3-dihydro-1H-pyrido[2,3-b][1,4]oxazin-6-yl)-3-(tert-butyl)urea]", "IC50": "< 100"},
      {"smiles": "C[C@H]1Oc2cc(NC(=O)NC3(C)CC(F)(F)C3)ccc2N(Cc2cccc(C(F)(F)F)n2)C1=O", "note": "[Example 231, (R)-1-(3,3-difluoro-1-methylcyclobutyl)-3-(2-methyl-3-oxo-4-((6-(trifluoromethyl)pyridin-2-yl)methyl)-3,4-dihydro-2H-benzo[b][1,4]oxazin-7-yl)urea]", "IC50": "100 to 1000"},
      {"smiles": "C[C@@H](c1ccc2c(c1)OCCC2)n1c(=O)cnc2cc(NC(=O)NC(C)(C)C)ccc21", "note": "[Example 152, (S)-1-(tert-butyl)-3-(1-(1-(chroman-7-yl)ethyl)-2-oxo-1,2-dihydroquinoxalin-6-yl)urea]", "IC50": "> 1000"}
    ]}
  ]
}
